According to article PMC7874188, “Mucoromycotina Fungi Possess the Ability to Utilize Plant Sucrose as a Carbon Source: Evidence From Gongronella sp. w5” (Frontiers in Microbiology, 2021):

Test system: T1, GspInv
T1 construct: native, purified from w5 mycelia cytoplasm (High Q, Sephacryl S100); untagged
Assay: invertase hydrolysis kinetics, […] substrate
Format: biochemical, Gongronella sp. w5
Settings: pH 5.0 citrate-Na2HPO4, optimal temperature; constant printed only as "substrate affinity"

OC[C@H]1O[C@@](CO)(O[C@H]2O[C@H](CO)[C@@H](O)[C@H](O)[C@H]2O)[C@@H](O)[C@@H]1O [sucrose]
Km: 3.1 mM
